Results as given in patent US20110319352A1, “Compounds That Bind Oxysterol Binding Proteins, and Methods of Use Thereof” (President and Fellows of Harvard College, priority 2008, published 2011).
Residues, ends and D or L forms follow the SMILES beside them. *: point of attachment. Cbz = O=C(OCc1ccccc1)*

What was measured:
pERK1/2 in HCT-116 cells = assay: Western blot of pERK1/2; assay type: cell-based; details: cephalostatin 1 50 nM, 25-OHC 20 μM 12 h
Description: FIG. 21 depicts Western blot and densitometry analysis of pERK1/2 in HCT-116 cells during treatment with 50 nM cephalostatin 1. 25-OHC (20 μM) and okadaic acid (OKA, 10 nM) treatments were for 12 h and 24 h, respectively.
As another test of whether CRAMs perturb a known OSBP function, it was determined whether CRAMs induce changes to the phosphorylation state of ERK1/2. As mentioned above, 25-OHC binds OSBP and causes disruption of a complex between OSBP and the phosphatases HePTP and PP2A. This blocks dephosphorylation of pERK1/2, leading to a persistence of pERK1/2. Opposing this effect is cholesterol, which binds OSBP, inducing formation of the OSBP-HePTP-PP2A ternary complex, causing ERK1/2 dephosphorylation (FIG. 13).

[1] = system: OSBP localization in HCT-116 p21+/+ cells; assay: OSBP localization by immunofluorescence confocal microscopy; assay type: cell-based; details: compound exposure 4 h (OSW-1 1 nM)
Description: FIG. 22 depicts OSBP localization in HCT-116 p21^+/+ cells imaged by immunofluorescence confocal microscopy. Immunofluorescence was used to image OSBP and the trans-Golgi protein p230 after compound exposure for 4 h. […] was labeled with Hoescht 33342.
As another way to investigate how CRAMs may affect OSBP, immunofluorescence (IF) experiments were performed in HCT-116 p21^+/+ cells to determine whether OSBP localization was altered upon treatment with different CRAMs. In untreated cells, OSBP resides largely at ER/cytoplasmic sites with a partial localization at the Golgi (FIG. 22A).
This translocation has been reported many times in the literature as an effect of 25-OHC on OSBP. Treatment of cells with OSW-1 at 1 nM for 4 h caused a dramatic and unprecedented effect on OSBP localization (FIG. 22C). […] In this case p230 has been dispersed (see […]). The translocation of OSBP induced by 2 is distinct from that of 25-OHC. […] They also reveal that the effects on OSBP translocation by 1 and 2 are distinct from 25-OHC.

OSBP protein levels = OSBP protein levels by western blot; assay type: cell-based
Description: One unanticipated discovery from the IF studies was that, after several hours, CRAM treatment of cells caused a significant reduction in the intensity of the OSBP fluorescent signal. This could mean that CRAMs are inducing a reduction in OSBP protein levels: an effect not observed with 25-OHC. The amount of OSBP protein in cells exposed to CRAMs was measured by western blot. […] Cephalostatin 1 induced a 70% reduction in OSBP at 12 h, and OSW-1 caused a 69% reduction in OSBP at 24 h. […] This supports a situation where reduction of OSBP levels by 1 and 2 is a result of a proteasome-dependent degradation process. One possible scenario is that 1 and 2 are also causing protein level reductions of ORPs and this is the source of cytotoxicity of CRAMs.

[2] = cytotoxicity of 25-OHC (cells not named); assay type: cell-based; details: doses up to 1000 times its OSBP Kd
HCT-116 p21−/− cells [3] = details: cited from earlier work
HCT-116 p21+/+ cells = details: literature value [6]; cited from earlier work
recombinant OSBP-myc-his = target: T1, recombinant OSBP-myc-his (Homo sapiens, UniProt P22059); assay: competitive binding assay, displacement of [3H]-25-OHC from OSBP (charcoal-dextran, liquid scintillation counting); details: for displacement of OSBP-bound [3H]-25-OHC: at low micromolar-concentrations
T1 construct: made in house; host or cells: HEK-293T (crude S100 lysate, not purified)
T1 sequence (P22059 1-807): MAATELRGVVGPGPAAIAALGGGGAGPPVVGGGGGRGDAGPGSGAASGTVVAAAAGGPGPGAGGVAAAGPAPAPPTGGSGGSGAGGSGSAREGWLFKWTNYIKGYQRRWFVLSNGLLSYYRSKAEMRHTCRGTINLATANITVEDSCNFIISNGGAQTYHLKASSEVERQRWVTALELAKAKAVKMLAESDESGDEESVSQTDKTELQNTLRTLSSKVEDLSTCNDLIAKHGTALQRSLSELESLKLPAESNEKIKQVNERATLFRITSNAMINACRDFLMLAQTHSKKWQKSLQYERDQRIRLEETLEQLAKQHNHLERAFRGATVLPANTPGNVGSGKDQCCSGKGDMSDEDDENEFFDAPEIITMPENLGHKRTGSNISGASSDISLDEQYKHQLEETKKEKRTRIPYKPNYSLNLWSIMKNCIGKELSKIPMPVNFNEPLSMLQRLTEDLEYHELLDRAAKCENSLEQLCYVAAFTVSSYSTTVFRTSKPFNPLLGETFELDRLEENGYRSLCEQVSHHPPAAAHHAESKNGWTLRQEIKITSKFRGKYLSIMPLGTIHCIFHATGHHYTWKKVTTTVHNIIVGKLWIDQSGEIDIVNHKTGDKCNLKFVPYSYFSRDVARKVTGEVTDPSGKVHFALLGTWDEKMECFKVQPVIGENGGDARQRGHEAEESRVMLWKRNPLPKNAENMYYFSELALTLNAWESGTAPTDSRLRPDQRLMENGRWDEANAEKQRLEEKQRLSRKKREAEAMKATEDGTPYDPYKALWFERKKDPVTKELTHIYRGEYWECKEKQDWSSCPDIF
Description: It has been determined that CRAMs inhibit the binding of radiolabelled 25-OHC ([^3H]-25-OHC) to recombinant OSBP-myc-his and ORP4-myc-his overexpressed in HEK-293T lysate (FIG. 18). It is known that 25-hydroxycholesterol is a high affinity ligand for OSBP and ORP4. Increasing concentrations of CRAMs or OSW-1 analogs were incubated with 20 nM [^3H]-25-OHC in OSBP-myc-his or ORP4-myc-his S100 lysate for 16 h at 4° C. after which unbound sterol was removed using charcoal-dextran and the bound sterol quantified by LCS (liquid scintillation counting).
These experiments provide evidence that CRAMs are ligands of OSBP and ORP4, and in the case of 1 and 2, they are high affinity ligands.
To measure the Kis of CRAMs to OSBP and ORP4 reported above, a previously reported dextran-coated charcoal assay was adapted into a 96-well format. […] To solve these limitations a binding SPA (scintillation proximity assay) for OSBP/ORPs (FIG. 26) will be developed.

HCT-116 p21−/− cells [4] = assay: growth inhibition of HCT-116 cells lacking p21 (p21 dependence); assay type: cell-based; details: for dependence of growth inhibition on p21 status: HCT-116 p21−/− versus p21+/+
Excerpt: Values are mean±SD of 3 individual experiments each performed in sextublicate or from a single experiment performed in sextublicate. Values for […] were reported in the literature (see Beutler J A, Shoemaker R H, Johnson T, Boyd M R. “Cytotoxic geranyl stilbenes from Macaranga schweinfurthii,” J. Nat. Prod. 1998, 61(12), 1509-12).
[5] […] This shared p21 differential cytotoxicity supports the idea of a common CRAM mechanism of action and likely similar target. […] However, caution has to be exercised in concluding that compounds found to be selective for p21 deficient HCT-116 cells are truly synthetic lethal with p21. It was recently reported that compounds shown to be hypersensitive to HCT-116 p21^−/− cells was actually due to an overexpression of p53 in that cell line. Subsequent siRNA knockdown of p53 eliminated the apparent p21 synthetic lethality.

[5] = system: HCT-116 p21−/− shNT and shOSBP cells; assay: CRAM cytotoxicity after shRNA knockdown of OSBP, HCT-116 p21−/−; assay type: cell-based; details: HCT-116 p21−/−; for sensitization (GI50 shift) by OSBP knockdown: OSBP knockdown by 84%
Excerpt: FIG. 17 depicts CRAM cytotoxicity in shRNA OSBP knockdown cell lines. A: Dose curves from a representative experiment. B: GI50 values of CRAMs and control compounds in HCT-116 p21−/− shNT and shOSBP cells and densitometric analysis of OSBP-levels. shNT=non-targeting shRNA, shOSBP=OSBP-targeting shRNA; * P=0.0006 (n=4), ** P=0.0002 (n=3), *** P=0.0003 (n=3), and **** P≦0.0001 (n=7) compared to shNT-treated cells.
To determine whether the cytotoxicity of CRAMs depends on the amount of OSBP in cells, the effects of shRNA knockdown of OSBP on the growth inhibitory activity of CRAMs was measured. Treatment of HCT-116 p21^−/− cells with shRNA targeted to OSBP [24] caused an 84% reduction in the level of OSBP as measured by western blot (FIG. 17B, bottom right).

NCI-60 = details: read-out: GI50, average against the NCI-60; cited from earlier work
tumor xenograft = details: i.p. 9.3 mg/kg (Q2D×4); cited from earlier work

## C[C@H](CCCC(C)(C)O)[C@H]1CC[C@H]2[C@@H]3CC=C4C[C@@H](O)CC[C@]4(C)[C@H]3CC[C@]12C [25-OHC, 25-hydroxycholesterol, reference compound]
pERK1/2 in HCT-116 cells
  pERK1/2 levels: had the same effect as CRAMs
[1]
  effect on OSBP localization: OSBP translocates to the Golgi
OSBP protein levels
  effect on OSBP protein levels: not observed
[2]
  cytotoxicity: not cytotoxic

## CC(/C=C/C=C(C)/C=C/C=C(\C)C(=O)O)=C1/C(=O)C[C@H]2[C@@]3(C)CCC(=O)C(C)(C)[C@@H]3CC[C@]12C [(−)-stellettin E]
HCT-116 p21−/− cells [3]; literature value [6]
  GI50: 39 nM
HCT-116 p21−/− cells [3]; ratio of GI50, literature
  more cytotoxic to HCT-116 p21−/− compared to parental HCT-116: 117 times
HCT-116 p21−/− cells [3]; reported in the literature
  more active in HCT-116 lacking the p21 protein: 117 fold
HCT-116 p21+/+ cells
  GI50: 4570 nM

## C[C@@H]1[C@]2(O[C@H]3C=C4[C@@H]5CC[C@H]6Cc7nc8c(nc7C[C@]6(C)[C@H]5C[C@@H](O)[C@]4(C)[C@]31O)C[C@@H]1CC[C@H]3C4=CC[C@@H]5[C@H](C)[C@@]6(OC[C@]45C(=O)C[C@@H]3[C@@]1(C)C8)OC(C)(C)C[C@H]6O)O[C@](C)(CO)C[C@H]2O [Cephalostatin 1]
Recombinant OSBP-myc-his; 20 nM [3H]-25-OHC, OSBP-myc-his S100 lysate (HEK-293T), 16 h at 4° C., read-out: Ki, displacing OSBP-bound [3H]-25-OHC
  Ki: 50 nM
HCT-116 p21−/− cells [4]; 48 h (FIG. 14)
  differential GI50, HCT-116 p21−/− versus p21+/+: 44 fold
[5]
  sensitization (GI50 shift) by OSBP knockdown: 3.5 fold
pERK1/2 in HCT-116 cells
  pERK1/2 levels: significant increase in pERK1/2 starting at 12 h and persisting for at least 24 h
[1]
  effect on OSBP localization: caused a significant amount of OSBP to co-localize with the plasma membrane
OSBP protein levels
  effect on OSBP protein levels: time-dependent reduction in OSBP protein levels
OSBP protein levels; at 12 h
  reduction in OSBP: 70%

## CC(C)C[C@@H](C=O)NC(=O)[C@H](CC(C)C)NC(=O)[C@H](CC(C)C)NC(=O)OCc1ccccc1 [MG132, reference compound] (Cbz-Leu-Leu-Leu-aldehyde)
OSBP protein levels
  effect on OSBP protein levels: complete rescue of OSBP levels

## COc1cc(/C=C/c2cc(O)c(C/C=C(\C)CCC=C(C)C)c(O)c2)cc2c1O[C@]1(C)C[C@@H](O)[C@@H](O)C(C)(C)[C@H]1C2 [Schweinfurthin B, schweinfurthin B, reference compound]
[1]
  effect on OSBP localization: induced OSBP translocation, but in a manner similar to the 25-OHC effect

## CC(C)C[C@H](NC(=O)[C@H](Cc1ccccc1)NC(=O)c1cnccn1)B(O)O [bortezomib, reference compound]
[5]
  sensitization by OSBP knockdown: does not sensitize

## C[C@H]1CCC/C=C/[C@@H]2C[C@H](O)C[C@H]2[C@H](O)/C=C/C(=O)O1 [brefeldin A, reference compound]
[5]
  sensitization by OSBP knockdown: does not sensitize

## CC(=O)O[C@H]1C(=O)[C@@]2(C)[C@H]([C@H](OC(=O)c3ccccc3)[C@]3(O)C[C@H](OC(=O)[C@H](O)[C@@H](NC(=O)c4ccccc4)c4ccccc4)C(C)=C1C3(C)C)[C@]1(OC(C)=O)CO[C@@H]1C[C@@H]2O [taxol, reference compound]
[5]
  sensitization by OSBP knockdown: does not sensitize

## ritterazine B
Recombinant OSBP-myc-his
  displacement of OSBP-bound [3H]-25-OHC: displaced the bound ligand
HCT-116 p21−/− cells [4]
  dependence of growth inhibition on p21 status: selectively growth inhibitory for HCT-116 cells lacking p21
[5]
  sensitization by OSBP knockdown: sensitized

## schweinfurthin A
Recombinant OSBP-myc-his
  displacement of OSBP-bound [3H]-25-OHC: displaced the bound ligand
HCT-116 p21−/− cells [4]
  dependence of growth inhibition on p21 status: selectively growth inhibitory for HCT-116 cells lacking p21
[5]
  sensitization by OSBP knockdown: sensitizes
  sensitization (GI50 shift) by OSBP knockdown: 8.9 fold
NCI-60
  GI50: 360 nM
Tumor xenograft
  toxicity in xenograft mice: without overt toxicity
  tumor volume: reduction in tumor volume compared to vehicle-treated controls
